Measured values from patent US12006321B2, “Substituted pyrazolo[1,5-a]pyrimidines as apelin receptor agonists” (Sanford Burnham Prebys Medical Discovery Institute, priority 2017, dated 2024).

The compounds below were run against T1, human apelin receptor (APJ, APLNR) (Homo sapiens, UniProt P35414) (assay: cell-based cAMP assay (TR-FRET) in Chinese hamster ovary cells expressing the apelin receptor). Details: EC50 = 50% of control (apelin-13, 1 nM) response; cAMP in CHO cells, 0.5 h incubation; read-out: Potency Category.
T1 construct: host or cells: Chinese hamster ovary (CHO) cells, stably integrated receptor
T1 sequence (P35414 1-380): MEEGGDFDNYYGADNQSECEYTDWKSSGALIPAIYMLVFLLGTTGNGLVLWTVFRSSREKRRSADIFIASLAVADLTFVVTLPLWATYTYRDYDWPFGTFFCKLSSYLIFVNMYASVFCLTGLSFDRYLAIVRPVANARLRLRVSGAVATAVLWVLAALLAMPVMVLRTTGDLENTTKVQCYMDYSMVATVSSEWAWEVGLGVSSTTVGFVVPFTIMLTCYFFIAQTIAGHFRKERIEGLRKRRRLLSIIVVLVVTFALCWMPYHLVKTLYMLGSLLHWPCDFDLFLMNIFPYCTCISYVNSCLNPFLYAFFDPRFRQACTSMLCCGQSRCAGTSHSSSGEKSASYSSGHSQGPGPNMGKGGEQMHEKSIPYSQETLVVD
Outline: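 CHO cells stably expressing human APJ were forskolin-stimulated, then exposed to compound (0.0-100 μM, ≤1% DMSO) for 0.5 h. Lysate cAMP read by competitive TR-FRET immunoassay; EC50 and efficacy expressed relative to 1 nM apelin-13, four-parameter fit over ≥10 concentrations.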
For `Cc1cccc(C(=O)O)c1-c1c(C)nn2c(C(C)C)cc(C(=O)O)nc12` [Compound 85, 3-(2-carboxy-6-methylphenyl)-2-methyl-7-(methylethyl)-8-hydropyrazolo[1,5-a]pyrimidine-5-carboxylic acid], the EC50 was > 500 nM.
For `CCOC(=O)c1cc(C(C)C)n2nc(C)c(-c3c(C)cccc3F)c2n1` [Compound 49, ethyl 3-(6-fluoro-2-methylphenyl)-2-methyl-7-(methylethyl)-8-hydropyrazolo[1,5-a]pyrimidine-5-carboxylate], the EC50 was > 500 nM.
In the case of `Cc1cccc(C)c1-c1c(C)nn2c(-c3ccccc3)cc(C(=O)O)nc12` [Compound 83, 3-(2,6-dimethylphenyl)-2-methyl-7-phenyl-8-hydropyrazolo[1,5-a]pyrimidine-5-carboxylic acid], the EC50 is reported as > 500 nM.
With `COc1ccc(-c2c(C)nn3c(C(=O)O)cc(C(C)C)nc23)cc1` [Compound 10, 3-(4-methoxyphenyl)-2-methyl-5-(methylethyl)-8-hydropyrazolo[1,5-a]pyrimidine-7-carboxylic acid] the EC50 was > 500 nM.
For `Cc1nn2c(C(C)C)c(C)c(C(=O)O)nc2c1-c1ccccc1` [Compound 38, 2,6-dimethyl-7-(methylethyl)-3-phenyl-8-hydropyrazolo[1,5-a]pyrimidine-5-carboxylic acid], the EC50 was > 500 nM.
`Cc1cccc(-c2c(C)nn3c(C(C)C)cc(C(=O)O)nc23)c1` [Compound 28, 2-methyl-7-(methylethyl)-3-(3-methylphenyl)-8-hydropyrazolo[1,5-a]pyrimidine-5-carboxylic acid] was tested, and the EC50 was > 500 nM.
`Cc1cccc(C)c1-c1c(C)nn2c(C3CCC3)cc(C(=O)O)nc12` [Compound 61, 3-(2,6-dimethylphenyl)-7-cyclobutyl-2-methyl-8-hydropyrazolo[1,5-a]pyrimidine-5-carboxylic acid] was tested, and the EC50 was 100 to 200 nM.
`Cc1cccc(C)c1-c1c(C)nn2c(C3=CCNCC3)cc(C(=O)O)nc12` [Compound 158, 3-(2,6-dimethylphenyl)-2-methyl-7-(4-1,2,5,6-tetrahydropyridyl)-8-hydropyrazolo[1,5-a]pyrimidine-5-carboxylic acid] was tested, and the EC50 was > 500 nM.
With `CCOC(=O)c1cc(C2CC2)n2nc(C)c(-c3c(C)cccc3C)c2n1` [Compound 59, ethyl 3-(2,6-dimethylphenyl)-7-cyclopropyl-2-methyl-8-hydropyrazolo[1,5-a]pyrimidine-5-carboxylate] the EC50 was > 500 nM.
With `Cc1cccc(C)c1-c1c(C2CCC2)nn2c(C(C)C)cc(C(=O)O)nc12` [Compound 81, 3-(2,6-dimethylphenyl)-2-cyclobutyl-7-(methylethyl)-8-hydropyrazolo[1,5-a]pyrimidine-5-carboxylic acid] the EC50 was > 500 nM.
`COCc1cccc(C)c1-c1c(C)nn2c(C(C)C)cc(C(=O)O)nc12` [Compound 131, 3-[6-(methoxymethyl)-2-methylphenyl]-2-methyl-7-(methylethyl)-8-hydropyrazolo[1,5-a]pyrimidine-5-carboxylic acid] was tested, and the EC50 was < 100 nM.
`Cc1cccc(C)c1-c1c(C)nn2c(C(C)C)cc(CO)nc12` [Compound 62, [3-(2,6-dimethylphenyl)-2-methyl-7-(methylethyl)-8-hydropyrazolo[1,5-a]pyrimidin-5-yl]methan-1-ol] was tested, and the EC50 was > 500 nM.
For `COC(=O)c1nc2c(-c3ccccc3)c(C)nn2c(C(C)C)c1C` [Compound 37, methyl 2,6-dimethyl-7-(methylethyl)-3-phenyl-8-hydropyrazolo[1,5-a]pyrimidine-5-carboxylate], the EC50 was > 500 nM.
`Cc1cccc(C)c1-c1c(C(=O)O)nn2c(C(C)C)cc(C(=O)O)nc12` [Compound 96, 3-(2,6-dimethylphenyl)-7-(methylethyl)-8-hydropyrazolo[1,5-a]pyrimidine-2,5-dicarboxylic acid] was tested, and the EC50 was > 500 nM.
With `CNC(=O)c1cc(C(C)C)n2nc(C)c(-c3ccccc3)c2n1` [Compound 15, N-methyl[2-methyl-7-(methylethyl)-3-phenyl(8-hydropyrazolo[1,5-a]pyrimidin-5-yl)]carboxamide] the EC50 was > 500 nM.
`CCc1cccc(C)c1-c1c(C)nn2c(C(C)C)cc(C(=O)O)nc12` [Compound 121, 3-(6-ethyl-2-methylphenyl)-2-methyl-7-(methylethyl)-8-hydropyrazolo[1,5-a]pyrimidine-5-carboxylic acid] was tested, and the EC50 was > 500 nM.
With `CCOC(=O)c1cc(C(C)C)n2nc(C)c(-c3ccccc3Cl)c2n1` [Compound 19, ethyl 3-(2-chlorophenyl)-2-methyl-7-(methylethyl)-8-hydropyrazolo[1,5-a]pyrimidine-5-carboxylate] the EC50 was > 500 nM.
`Cc1cccc(Br)c1-c1c(C)nn2c(C(C)C)cc(C(=O)O)nc12` [Compound 130, 3-(2-bromo-6-methylphenyl)-2-methyl-7-(methylethyl)-8-hydropyrazolo[1,5-a]pyrimidine-5-carboxylic acid] gave an EC50 of 200 to 500 nM.
With `Cc1nn2c(C(C)C)cc(C(=O)O)nc2c1-c1c(F)cccc1Cl` [Compound 113, 3-(2-chloro-6-fluorophenyl)-2-methyl-7-(methylethyl)-8-hydropyrazolo[1,5-a]pyrimidine-5-carboxylic acid] the EC50 was > 500 nM.
In the case of `Cc1cccc(C)c1-c1c(C)nn2c(Oc3ccccc3)cc(C(=O)O)nc12` [Compound 107, 3-(2,6-dimethylphenyl)-2-methyl-7-phenoxy-8-hydropyrazolo[1,5-a]pyrimidine-5-carboxylic acid], the EC50 is reported as > 500 nM.
For `COC(=O)c1cc(C(C)(C)C)n2nc(C)c(-c3ccccc3)c2n1` [Compound 1, methyl 7-(tert-butyl)-2-methyl-3-phenyl-8-hydropyrazolo[1,5-a]pyrimidine-5-carboxylate], the EC50 was > 500 nM.
In the case of `Cc1cccc(C)c1-c1c(C)nn2c(C(C)C)cc(C(=O)O)nc12` [Compound 41, 3-(2,6-dimethylphenyl)-2-methyl-7-(methylethyl)-8-hydropyrazolo[1,5-a]pyrimidine-5-carboxylic acid], the EC50 is reported as < 100 nM.
For `CCOC(=O)c1cc(C(C)C)n2nc(C(C)C)c(-c3c(C)cccc3C)c2n1` [Compound 73, ethyl 2,7-bis(methylethyl)-3-(2,6-dimethylphenyl)-8-hydropyrazolo[1,5-a]pyrimidine-5-carboxylate], the EC50 was > 500 nM.
`Cc1nn2c(C(C)C)cc(C(=O)O)nc2c1-c1ccc(F)cc1` [Compound 8, 3-(4-fluorophenyl)-2-methyl-7-(methylethyl)-8-hydropyrazolo[1,5-a]pyrimidine-5-carboxylic acid] was tested, and the EC50 was > 500 nM.
For `CCOC(=O)c1cc(C(C)C)n2nc(C)c(-c3c(C)cc(F)cc3C)c2n1` [Compound 47, ethyl 3-(4-fluoro-2,6-dimethylphenyl)-2-methyl-7-(methylethyl)-8-hydropyrazolo[1,5-a]pyrimidine-5-carboxylate], the EC50 was > 500 nM.
For `Cc1cccc(C)c1-c1c(C)nn2c(C3=CCCC3)cc(C(=O)O)nc12` [Compound 127, 3-(2,6-dimethylphenyl)-7-cyclopent-1-enyl-2-methyl-8-hydropyrazolo[1,5-a]pyrimidine-5-carboxylic acid], the EC50 was > 500 nM.
With `CCOC(=O)c1cc(CC)n2nc(C)c(-c3c(C)cccc3C)c2n1` [Compound 58, ethyl 3-(2,6-dimethylphenyl)-7-ethyl-2-methyl-8-hydropyrazolo[1,5-a]pyrimidine-5-carboxylate] the EC50 was > 500 nM.
With `CCOC(=O)c1cc(C(C)C)n2nc(C3CC3)c(-c3ccccc3)c2n1` [Compound 11, ethyl 2-cyclopropyl-7-(methylethyl)-3-phenyl-8-hydropyrazolo[1,5-a]pyrimidine-5-carboxylate] the EC50 was > 500 nM.
With `CCOC(=O)c1cc(C(C)C)n2nc(C)c(-c3ccc(C)cc3C)c2n1` [Compound 44, ethyl 3-(2,4-dimethylphenyl)-2-methyl-7-(methylethyl)-8-hydropyrazolo[1,5-a]pyrimidine-5-carboxylate] the EC50 was > 500 nM.
With `CCOC(=O)c1cc(N2CCN(C)CC2)n2nc(C)c(-c3c(C)cccc3C)c2n1` [Compound 108, ethyl 3-(2,6-dimethylphenyl)-2-methyl-7-(4-methylpiperazinyl)-8-hydropyrazolo[1,5-a]pyrimidine-5-carboxylate] the EC50 was > 500 nM.
With `CCOC(=O)c1cc(C2CCC2)n2nc(C)c(-c3c(C)cccc3C)c2n1` [Compound 60, ethyl 3-(2,6-dimethylphenyl)-7-cyclobutyl-2-methyl-8-hydropyrazolo[1,5-a]pyrimidine-5-carboxylate] the EC50 was > 500 nM.
With `CCOC(=O)c1cc(C(C)C)n2nc(C)c(-c3c(OC)cccc3OC)c2n1` [Compound 40, ethyl 3-(2,6-dimethoxyphenyl)-2-methyl-7-(methylethyl)-8-hydropyrazolo[1,5-a]pyrimidine-5-carboxylate] the EC50 was > 500 nM.
With `Cc1cccc(C)c1-c1c(C)nn2c(N3CCCCC3)cc(C(=O)O)nc12` [Compound 125, 3-(2,6-dimethylphenyl)-2-methyl-7-piperidyl-8-hydropyrazolo[1,5-a]pyrimidine-5-carboxylic acid] the EC50 was > 500 nM.
`CCOC(=O)c1cc(C(C)C)n2nc(-c3ccccc3)c(-c3c(C)cccc3C)c2n1` [Compound 78, ethyl 3-(2,6-dimethylphenyl)-7-(methylethyl)-2-phenyl-8-hydropyrazolo[1,5-a]pyrimidine-5-carboxylate] was tested, and the EC50 was > 500 nM.
With `CCOC(=O)c1cc(C(C)C)n2nc(C)c(-c3c(C)cccc3Br)c2n1` [Compound 129, ethyl 3-(2-bromo-6-methylphenyl)-2-methyl-7-(methylethyl)-8-hydropyrazolo[1,5-a]pyrimidine-5-carboxylate] the EC50 was > 500 nM.
